The results in this text go back to PubChem BioAssay AID624323 (Sanford-Burnham Center for Chemical Genomics, 2012).

The test system of this series is aqueous buffer solubility, pH 5.0/6.2/7.4. Put plainly: aqueous buffer solubility at three pH values, ADME assay, biophysical, set 2 (AID 624323). Conditions: at 100 µM, stronger effect = higher value.
Where [1] appears, read: measured here: solubility at pH 5.0.
[2] abbreviates: measured here: solubility at pH 6.2.

≈ marks a conversion by molar mass, not a printed value. Calls of active or inactive are those of the source. The rule behind the calls is not given here.

`Cc1ccc(S(=O)(=O)C(c2ccccc2)c2c(C)noc2C)cc1` (centres undefined): the solubility is 16.5 µg/mL (≈ 48.3 µM). The compound further had a solubility under setting [1] of 15.5 µg/mL (≈ 45.4 µM). Further, the solubility under setting [2] amounted to 16.9 µg/mL (≈ 49.5 µM).

In the case of `O=C1CCCC2=C1C1(CCCC1)N=C(Nc1nc3ccccc3o1)N2`, the solubility is 0.07 µg/mL (inactive) (≈ 0.208 µM). Further, the solubility under setting [1] worked out at 0.07 µg/mL (≈ 0.208 µM). This compound also came in with a solubility under setting [2] of 0.09 µg/mL (≈ 0.268 µM).

For the compound `Oc1cc(O)cc(/C=C/c2ccc(O)c(O)c2)c1`, the solubility is 10.1 µg/mL (≈ 41.4 µM). Besides, the solubility under setting [1] is greater than 24 µg/mL. The compound further gave a solubility under setting [2] greater than 24 µg/mL.

In the case of `CCOc1ccc(NC(=S)N2CCC(C(O)(c3ccccc3)c3ccccc3)CC2)cc1`, the solubility was 0.37 µg/mL (inactive) (≈ 0.828 µM). This compound also displayed a solubility under setting [1] of 1.1 µg/mL (≈ 2.46 µM). Besides, the solubility under setting [2] came to 0.8 µg/mL (≈ 1.79 µM).

On to `CC(=O)c1ccc(N2CCN(S(=O)(=O)c3ccc4c(c3)CC(=O)N4)CC2)cc1`, for which the solubility was 3.5 µg/mL (inactive) (≈ 8.76 µM). The compound further came in with a solubility under setting [1] of 3.2 µg/mL (≈ 8.01 µM). Under setting [2], this compound came in with a solubility of 3.7 µg/mL (≈ 9.26 µM).

On to `O=c1[nH]c2c(s1)C(c1cccnc1)C1C3CCC(C3)C1S2` (centres undefined), for which the solubility is 21.7 µg/mL (≈ 68.6 µM). Also, the solubility under setting [1] worked out at 24 µg/mL (≈ 75.8 µM). Besides, the solubility under setting [2] amounted to 21.8 µg/mL (≈ 68.9 µM).

Take `c1ccc2c(Nc3nnc(-c4ccncc4)s3)cccc2c1`: the solubility was 3.5 µg/mL (inactive) (≈ 11.5 µM). This compound had a solubility under setting [1] of 3.3 µg/mL (≈ 10.8 µM). Further, under setting [2], the solubility amounted to 3.5 µg/mL (≈ 11.5 µM).

On to `COc1ccc(S(=O)(=O)N2CCN(S(=O)(=O)c3ccc4c(c3)OCCO4)CC2)cc1`, for which the solubility is < 0.1 µg/mL (inactive). Under setting [1], this compound returned a solubility of 0.13 µg/mL (≈ 0.286 µM). This compound had a solubility under setting [2] of less than 0.1 µg/mL.

In the case of `Cc1cc(C(=O)CN2C(=O)CCC2=O)c(C)n1Cc1ccccc1`, the solubility is greater than 32 µg/mL. Also, under setting [1], the solubility was found to be 25.2 µg/mL (≈ 77.7 µM). Also, the solubility under setting [2] was 22.6 µg/mL (≈ 69.7 µM).

Turning to `Cc1ccc(N2CCN(S(=O)(=O)N3CCCCC3)CC2)c(C)c1`, the solubility is 1.6 µg/mL (inactive) (≈ 4.74 µM). In addition, the solubility under setting [1] is 1.8 µg/mL (≈ 5.33 µM). The same compound gave a solubility under setting [2] of 1.5 µg/mL (≈ 4.44 µM).

Regarding `O=c1oc2c(O)c(O)cc3c(=O)oc4c(O)c(O)cc1c4c23`, the solubility was greater than 30 µg/mL. Under setting [1], this compound returned a solubility of 7.9 µg/mL (≈ 26.1 µM). This compound gave a solubility under setting [2] greater than 30 µg/mL.

For the compound `Cc1ccc(-n2c(N)c(C#N)c(-c3ccccc3)c(C#N)c2=O)cc1`, the solubility is 0.84 µg/mL (inactive) (≈ 2.57 µM). For the same compound, the solubility under setting [1] amounted to 0.79 µg/mL (≈ 2.42 µM). Besides, the solubility under setting [2] was 0.93 µg/mL (≈ 2.85 µM).

In the case of `CC(C)C(=O)NC(c1ccco1)c1ccc2cccnc2c1O` (centres undefined), the solubility is 3.3 µg/mL (inactive) (≈ 10.6 µM). Further, under setting [1], the solubility amounted to 2.8 µg/mL (≈ 9.02 µM). Under setting [2], this compound yielded a solubility of 2.7 µg/mL (≈ 8.7 µM).

As for `COC(=O)c1ccccc1NC(=O)c1ccc(F)cc1`, the solubility is 0.69 µg/mL (inactive) (≈ 2.53 µM). The same compound showed a solubility under setting [1] of 0.85 µg/mL (≈ 3.11 µM). In addition, the solubility under setting [2] was 0.9 µg/mL (≈ 3.29 µM).

Turning to `O=S1(=O)Nc2c(ccc3cccnc23)-c2ccccc21`, the solubility was > 2.8 µg/mL (inactive). This compound had a solubility under setting [1] of 9.6 µg/mL (≈ 34 µM). The solubility under setting [2] amounted to 13.6 µg/mL (≈ 48.2 µM).

On to `O=C(COC(=O)C12CC3CC(CC(C3)C1)C2)NCc1ccco1`, for which the solubility was 2.6 µg/mL (inactive) (≈ 8.19 µM). The compound further registered a solubility under setting [1] of less than 0.1 µg/mL. The same compound registered a solubility under setting [2] of 4.2 µg/mL (≈ 13.2 µM).

Regarding `CS(=O)(=O)c1ccc(C(=O)OCC(=O)NC23CC4CC(CC(C4)C2)C3)cc1[N+](=O)[O-]`, the solubility is 3 µg/mL (inactive) (≈ 6.87 µM). Under setting [1], this compound showed a solubility of 1.8 µg/mL (≈ 4.12 µM). In addition, the solubility under setting [2] was determined as 2.5 µg/mL (≈ 5.73 µM).

With `CCc1nnc(NC(=O)c2ccc(NS(=O)(=O)c3ccccc3)cc2)s1`, the solubility was 0.78 µg/mL (inactive) (≈ 2.01 µM). In addition, under setting [1], the solubility was 0.09 µg/mL (≈ 0.232 µM). Under setting [2], this compound showed a solubility of 0.16 µg/mL (≈ 0.412 µM).

As for `Cn1cnc([N+](=O)[O-])c1Sc1ncnc2nc[nH]c12`, the solubility is greater than 27 µg/mL. Also, the solubility under setting [1] was greater than 27 µg/mL. For the same compound, under setting [2], the solubility was greater than 27 µg/mL.

On to `COc1ccc(Sc2ccc(NC(=O)c3ccccc3Cl)cc2C#N)cc1`, for which the solubility is 0 µg/mL (inactive). In addition, the solubility under setting [1] worked out at 0.01 µg/mL (≈ 0.0253 µM). Besides, under setting [2], the solubility was less than 0.01 µg/mL.

As for `O=C1C2CC=CCC2C(=O)N1c1n[nH]c(-c2ccccc2)n1` (centres undefined), the solubility is greater than 29 µg/mL. The solubility under setting [1] came out at 16 µg/mL (≈ 54.4 µM). This compound also yielded a solubility under setting [2] of 20.2 µg/mL (≈ 68.6 µM).

Turning to `COc1ccc(OC)c(-c2nnc3n2N=C(c2ccc(OC)c(OC)c2)CS3)c1`, the solubility is 26.1 µg/mL (≈ 63.3 µM). Under setting [1], the solubility came to 28.2 µg/mL (≈ 68.4 µM). Besides, the solubility under setting [2] turned out to be 29.5 µg/mL (≈ 71.5 µM).

With `Cc1ccccc1N1CCN(c2ncnc3c2cnn3Cc2ccc(Cl)cc2)CC1`, the solubility was < 0.01 µg/mL (inactive). Also, the solubility under setting [1] was determined as 0.03 µg/mL (≈ 0.0716 µM). The compound also had a solubility under setting [2] of less than 0.01 µg/mL.

As to `Cc1cc(C)nc(-n2nc(C)c(Sc3ccc(F)cc3)c2N)n1`, the solubility is 9.3 µg/mL (inactive) (≈ 28.2 µM). Moreover, the solubility under setting [1] was determined as 5.6 µg/mL (≈ 17 µM). In addition, under setting [2], the solubility came to 8.6 µg/mL (≈ 26.1 µM).

As to `CCOC(=O)C(C)Oc1cccc2c(=O)n(CC(=O)Nc3ccc4c(c3)OCCO4)ccc12` (centres undefined), the solubility was 0.36 µg/mL (inactive) (≈ 0.796 µM). Besides, the solubility under setting [1] was 0.27 µg/mL (≈ 0.597 µM). The solubility under setting [2] amounted to 0.31 µg/mL (≈ 0.685 µM).

For `N#Cc1ccccc1CSc1nc2ncc(Br)cc2[nH]1`, the solubility is 0.54 µg/mL (inactive) (≈ 1.56 µM). This compound also gave a solubility under setting [1] of 0.42 µg/mL (≈ 1.22 µM). Besides, under setting [2], the solubility turned out to be 0.52 µg/mL (≈ 1.51 µM).

In the case of `COc1ccc(CNCc2cccc3ccccc23)cc1`, the solubility was 26.2 µg/mL (≈ 94.5 µM). Moreover, the solubility under setting [1] was greater than 36 µg/mL. For the same compound, the solubility under setting [2] is greater than 36 µg/mL.

Turning to `COc1ccc(C2c3c(ncn(CCN4CCOCC4)c3=N)Oc3ccc4ccccc4c32)cc1OC` (centres undefined), the solubility was 41.5 µg/mL (≈ 83.2 µM). Also, the solubility under setting [1] is greater than 49 µg/mL. This compound also gave a solubility under setting [2] of 41.2 µg/mL (≈ 82.6 µM).

For the compound `CCc1oc2ccccc2c1C(=O)c1cc(Br)c(O)c(Br)c1`, the solubility was greater than 42 µg/mL. This compound displayed a solubility under setting [1] of 0.18 µg/mL (≈ 0.424 µM). Moreover, the solubility under setting [2] amounted to 26.1 µg/mL (≈ 61.5 µM).

For the compound `O=c1c2ccccc2[se]n1-c1ccccc1`, the solubility was 5.6 µg/mL (inactive) (≈ 20.4 µM). Under setting [1], this compound showed a solubility of 5 µg/mL (≈ 18.2 µM). This compound yielded a solubility under setting [2] of 6 µg/mL (≈ 21.9 µM).

In the case of `CC[C@H]1CN2CCc3cc(OC)c(OC)cc3[C@@H]2C[C@@H]1C[C@H]1NCCc2cc(OC)c(OC)cc21`, the solubility is greater than 55 µg/mL. The compound also showed a solubility under setting [1] greater than 55 µg/mL. For the same compound, the solubility under setting [2] was greater than 55 µg/mL.

With `Cc1ccc(S(=O)(=O)n2c(N)nc3ccccc32)cc1`, the solubility is 2.4 µg/mL (inactive) (≈ 8.35 µM). Under setting [1], this compound had a solubility of 2.3 µg/mL (≈ 8 µM). Moreover, the solubility under setting [2] was 2.4 µg/mL (≈ 8.35 µM).

Consider `O=C(O)c1ccccc1OCc1ccccc1Br`, for which the solubility is greater than 30 µg/mL. Also, the solubility under setting [1] was greater than 30 µg/mL. The solubility under setting [2] is greater than 30 µg/mL.

In the case of `COc1cc(NC(=O)c2cc(C3CC3)on2)c(OC)cc1Cl`, the solubility is 0.06 µg/mL (inactive) (≈ 0.186 µM). The compound also came in with a solubility under setting [1] of less than 0.01 µg/mL. Further, under setting [2], the solubility was determined as 0.05 µg/mL (≈ 0.155 µM).

Regarding `C=CCn1c(SCC(=O)c2ccc(O)c(O)c2)nnc1-c1ccccc1OC`, the solubility was 24 µg/mL (≈ 60.4 µM). In addition, under setting [1], the solubility was determined as 4.5 µg/mL (≈ 11.3 µM). The same compound registered a solubility under setting [2] of 5.3 µg/mL (≈ 13.3 µM).

For the compound `O=C(O)c1ccc(N2C(=O)/C(=C/c3ccc(-c4ccc([N+](=O)[O-])cc4)o3)C=C2c2ccccc2)cc1`, the solubility is 0.79 µg/mL (inactive) (≈ 1.65 µM). Under setting [1], this compound registered a solubility of 0.59 µg/mL (≈ 1.23 µM). The compound also came in with a solubility under setting [2] of 13.4 µg/mL (≈ 28 µM).

Regarding `O=c1[nH]c(SCc2ccc(Cl)cc2)nc2c1CCC2`, the solubility is 0.94 µg/mL (inactive) (≈ 3.21 µM). Besides, the solubility under setting [1] is 0.45 µg/mL (≈ 1.54 µM). In addition, the solubility under setting [2] was 0.52 µg/mL (≈ 1.78 µM).

Turning to `Cc1ccc(C)c(NS(=O)(=O)c2cc(C(=O)Nc3ccccc3-c3ccccc3)ccc2Cl)c1`, the solubility was 0.81 µg/mL (inactive) (≈ 1.65 µM). This compound also returned a solubility under setting [1] of less than 0.1 µg/mL. This compound returned a solubility under setting [2] of less than 0.1 µg/mL.

In general, solubility refers to how much of the substance goes into solution per volume.
